Measured values reported in patent US20250170101A1, “MONOACYLGLYCEROL LIPASE INHIBITORS AND USE THEREOF FOR THE TREATMENT AND MANAGEMENT OF PAIN AND RELATED CONDITIONS” (Psy Therapeutics, Inc., priority 2021, published 2025).
Like-named read-outs stand apart in the source and are kept apart here.

Test: Plasma and brain concentrations after single intraperitoneal administration, Examples 23 and 24
Assay type: in vivo, male C57BL/6 mice
Conditions: male, C57BL/6, mouse, IP 20 mg/kg
Method: This experiment was performed to determine plasma pharmacokinetics and estimate 2-AG levels in male C57BL/6 mice brain following a single intraperitoneal administration of Compound-74 (Dose: 5, 15, 50 and 150 mg/kg). The experiment was repeated at 150 mg/kg on 3 separate test dates to obtain the data shown in FIG. 1A (plasma and brain concentration of Compound 74 30 minutes after IP injection), and on the first and third test dates to obtain the data shown in FIG. 1B (brain concentration of 2-AG30 minutes after IP injection of Compound 74). • Compound 74, Molecular Wt.: 405.46 (Freebase), % Purity: Considered 100%. • Formulation: DMSO • Dose: 5, 15, 50 and 150 mg/kg • Dose volume: 2 mL/kg • Feeding regimen: freely fed • Groups:
Study Design: A total of thirty male mice were used into the study and divided in to five groups with six mice in each group (n=6 mice/group/treatment design). Animals in Group 1 to Group 4 were administered intraperitoneally with Compound 74 solution formulation at 5, 15, 50 and 150 mg/kg dose, respectively. Animals in Group 5 were administered intraperitoneally with vehicle at 2 mL/kg dose. Blood and brain samples were collected at 0.5 h post dose. Mice were euthanized by cervical dislocation and brain samples were dissected rapidly and snap frozen in liquid nitrogen, weighed and homogenized in 2 mL of acetonitrile containing 2-AGd5. Blood samples were centrifuged at 4000 rpm for 10 minutes at 4° C. Plasma was harvested and separated in pre-labeled tubes. All samples were stored below −70° C. until bioanalysis.
Analysis: Brain samples were processed for 2-AG estimation. 2-AG levels were the detected values. Plasma concentrations were determined by fit for purpose LC-MS/MS method. LLOQ: 5.09 ng/mL (Plasma and brain)
This experiment was performed to determine plasma pharmacokinetics and estimate 2-AG levels in male C57BL/6 mice brain following a single intraperitoneal administration of Compound-473 (Dose: 20 mg/kg). • Compound 473, Molecular Wt.: 463.41 (Freebase), % Purity: >98%. • Formulation: DMSO • Dose: 20 mg/kg • Dose volume: 10 mL/kg • Feeding regimen: Food and water ad libitum • Groups:
Study Design: A total of twelve C57BL/6 male mice were used in this study. Six animals were administered intraperitoneally with solution formulation of PSY-05-00473-002 at 20 mg/kg dose. Six animals were administered vehicle (5% NMP, 5% Solutol HS15 and 90% Normal saline) intraperitoneally at 10 mL/kg dose volume. Blood samples (approximately 60 μL) were collected under light isoflurane anesthesia from a set of six mice at 0.5 h. Plasma was harvested by centrifugation of blood and stored at −70±10° C. until analysis. After blood collection, mice were euthanized by cervical dislocation and brain samples were dissected rapidly and snapped frozen in liquid nitrogen and stored at −80. To homogenize, removed brain samples from the freezer, were divided into two equal hemispheres and weighed while still in frozen condition, and begun homogenization/extraction procedure without allowing the brain samples to thaw. One part is used for PK estimation and the other part is used for 2-AG estimation.
Analysis: For PK estimation, brain samples were homogenized in 2 volumes of PBS of brain weight. Total homogenate volume was three times of the brain weight. For 2-AG estimation, the frozen brain samples were homogenized in 2 mL acetonitrile containing 2-AGd5 (8.88 nmoles) will be incubated overnight at −20° C. to precipitate proteins. Blood samples were centrifuged at 10000 rpm for 10 minutes at 4° C. All samples were stored below −70° C. until bioanalysis. Plasma and brain homogenate samples were quantified by fit-for-purpose LC-MS/MS method (LLOQ: 1.02 ng/mL for plasma and 2.03 ng/mL for brain).

O=C(c1cc(O)ccc1F)N1CC2(CC(n3cc(C(F)(F)F)c(-c4ccccc4F)n3)C2)C1 (single isomer, unassigned) [Compound 473, (2-fluoro-5-hydroxyphenyl){6-[3-(o-fluorophenyl)-4-(trifluoromethyl)-1-pyrazolyl]-2-aza-2-spiro[3.3]heptyl}methanone]
concentration at 0.5 h (brain, read-out: Brain Concentration (ng/g), Mean): 2630 ng/g | Kp at 0.5 h (brain/plasma, read-out: Brain/Plasma Ratio (kp), Mean): 1.44 | concentration at 0.5 h (plasma, read-out: Plasma Concentration (ng/mL), Mean): 1820 ng/mL
